Assays:
[1] = Draves Wetting Test (ASTM D2281-68); assay type: physicochemical; details: 0.05 wt % (actives basis) in DI water; average of 3 measurements
Experimental: A 0.05 wt % (actives basis) solution of amine oxide in deionized (DI) water was used to determine the Draves wet-out time (WOT) in seconds. 0.75 g of surfactant was dispersed in 1,500 ml of DI water. The wet-out time (WOT) in seconds is recorded in Table 14 (average of 3 measurements). LAO is Lauramine oxide (linear hydrophobe), Sigma catalog number 40236.

[2] = Salt thickening, viscosity of SLS/SLES/amine oxide formulation; assay type: physicochemical; details: shear rate 3/s
Experimental: Linear amine oxides tend to increase the viscosity of a formulation containing NaCl in a dose-dependent manner. The viscosity (cP; shear rate 3/s) of a simple formulation was measured as the salt concentration varied from 0 to 5 wt %.

[3] = Foam height, high shear (Waring blender); assay type: physicochemical; details: for Foam volume (ml) 5 min / Foam volume (ml) Initial: 0.05 wt % in deionized water; for Foam volume (ml) 5 min: after 5 minutes; for Foam volume (ml) Initial: blended on High 30 seconds; for % decrease: foam volume, initial to 5 min
Experimental: A 0.05 wt % (actives basis) solution of the test surfactant was made in deionized water. 250 ml of the test solution was added the beaker of a Waring blender, capped, and then blended on High for 30 seconds and immediately transferred to a 1 L graduated cylinder. The total volume of foam plus liquid, as well as the liquid layer alone was recorded. The foam and liquid volumes were recorded again after 5 minutes.

[4] = Stain removal in cold water, brightness L*; details: compared to LAO; additive 0.05% active
Experimental: Amine oxides with linear and branched hydrophobes were compared in a screen for stain removal in cold water. Simple laundry liquid formulations were made that included only surfactants and builder.
Standard stain swatches were purchased from Testfabrics, Inc. (West Pittston, Pa.). STC/CFT PC-S-216 is diluted red lipstick on poly/cotton (65/35), and STC/CFT PC-S-132 is high discriminative sebum (synthetic) with pigment on poly/cotton, both made by Center for Testmaterials BV (CFT; The Netherlands). The swatches were pre-cut into 2 inch squares. The test formulation was diluted with DI water to 0.06% total surfactant to make the wash solution. Additives were added at a final concentration of 0.05% active in the wash solution. Stained fabric swatches were added to the wash solution, washed and rinsed at 20° C., and air-dried. The average swatch brightness (L*) for each treatment, and standard deviation, are reported for 3 replicates. […] All treatments are brighter than the untreated stain swatches. The nonionics NPE and LAE7 removed the lipstick and sebum stains to the same brightness.

[5] = system: zein protein; details: 1% surfactant solution, 30 C, 30 minutes
Text: Amine oxides with linear and branched hydrophobes from Examples 65 and 66 were compared in a screen to predict mildness of surfactants. There is a correlation between the ability of a surfactant to denature a protein and the skin irritation potential of that surfactant. The relationship is believed to result from surfactant binding to proteins like keratin, followed by the denaturation of these proteins, leading to skin irritation. A common screening test involves measuring the amount of zein (a corn protein which is insoluble in water) solubilized by a surfactant solution, the Zein Solubilization Test (Moore et al., 2003 and references therein)
For the test, 0.0750 g of zein protein is transferred into a 1.5 mL centrifuge tube. To this 1.5 mL of 1% surfactant solution is added, mixed, and placed in a 30 C incubator with mild stirring for 30 minutes. After 30 minutes has elapsed, the tube is centrifuged for 30 min at 3600 rpm. The solution is filtered through a pre-weighed 8 micron filter paper, and then dried overnight in a 50° C. oven. The insoluble zein residue is then weighed and the wt % Zein dissolved is calculated using the equation below. Each solution is analyzed in triplicate. The Zein score is normalized to a standard included in each set of tests, in this case LAE10.
% zein dissolved=(total zein added−total zein after drying Total zein added)×100

[6] = High-shear foaming of N-alkyl-N-methylglucamines in commercial blender; assay type: physicochemical; details: 1 wt % test substance in 10 wt % SDS, diluted to 0.05 wt % surfactant
Experimental: The high-shear foaming behavior of linear and branched N-alkyl-N glucamines was investigated, as this can have an impact on their performance in home care applications. […] The solutions were heated to 80° C., ultrasonicated for 1 h, and cooled to room temperature. Finally, the as-obtained solutions were diluted with MilliQ water to obtain a 0.05 wt % surfactant solution. In agreement with the literature on branched hydrophobes, the high-shear foaming tests performed in the commercial blender indicate that the linear N-decyl-N-methylglucamine (IC10 NMG) solution foams relatively more than its branched counterpart solution. For all solutions, the initial foam volume is between 40 and 53 mL. Lauramine oxide (LAO) appears to be foamier than the N-alkyl-N-methylglucamines.

[7] = Foaming of amine oxide added to commercial laundry liquid (Waring blender); assay type: physicochemical; set-up: Difference: unit: ml; details: for Difference: initial minus 5 min foam volume
Experimental: The surface foam volume and foam persistence of solutions of the amine oxides with linear and branched hydrophobes from Examples […] were compared. A commercial laundry liquid was diluted in deionized water according to the dosing instructions; 4.2 ml/L Persil Original. The diluted detergent was supplemented with 0%, 2%, 5% (based on wt laundry liquid) of LAO or Branched C12 AO, (2,4-diethyl-N,N-dimethyloctan-1-amine oxide, Example 66), and the solutions mixed briefly and used immediately. 250 ml of each test solution was added the beaker of a Waring blender, capped, and then blended on High for 30 seconds and immediately transferred to a 1 L graduated cylinder. The total volume of foam plus liquid, as well as the liquid layer alone was recorded. The foam and liquid volumes were recorded again after 5 minutes. All tests were performed in triplicate.

[8] = NaCl 0 wt %, 1.4% amine oxide, 4.3% SLS, 4.3% SLES

Structure (SMILES) | Wet out time [1] [s] | Viscosity [2, 8] [cP] | Viscosity ([2]; NaCl 0.5 wt %) [cP] | Viscosity ([2]; NaCl 1.0 wt %) [cP] | Viscosity ([2]; NaCl 1.5 wt %) [cP] | Viscosity ([2]; NaCl 2.0 wt %) | Viscosity ([2]; NaCl 2.5 wt %) | Viscosity ([2]; NaCl 3.0 wt %) | Viscosity ([2]; NaCl 3.5 wt %) | Viscosity ([2]; NaCl 4.0 wt %) | Viscosity ([2]; NaCl 4.5 wt %) | Viscosity ([2]; NaCl 5.0 wt %) | Foam volume (ml) 5 min [3] [mL] | Foam volume (ml) Initial [3] [mL] | % decrease [3] [%] | also measured
CCCCC(CC)CC(C)C[N+](C)(C)[O-] (stereo not shown) [Example 65, 4-ethyl-N,N-2-trimethyloctan-1-amine oxide] | >300 | 2 | 7 | 36 | 257 | 2,050 cP | 3,635 cP | 3,459 cP | 2,021 cP | 670 cP | 288 cP | 148 cP | 0 | 267 | 100 | foam in the wash solution [4]: very little foam
CCCCCCCCCCCC[N+](C)(C)[O-] [LAO, N,N-dimethyl laurylamine oxide, reference compound] | 33 | 2 | 2 | 11 | 115 | 1,494 cP | 7,562 cP | 17,343 cP | 25,302 cP | 27,585 cP | 24,918 cP | 19,368 cP | 500 | 523 | 4 | Zein score - normalized to LAE10 [5]: 4.212; Foam volume after 5 seconds stirring at speed 1 [6]: 53 mL; Foam volume after 5 minutes settling [6]: 50 mL; Foam volume After 5 min ([7]; Persil + 2% additive): 473 mL; Difference ([7]; Persil + 2% additive): 54; Foam volume After 5 min ([7]; Persil + 5% additive): 507 mL; Difference ([7]; Persil + 5% additive): 6; Initial foam volume ([7]; Persil Original 4.2 ml/L + 2% additive): 527 mL; Initial foam volume ([7]; Persil Original 4.2 ml/L + 5% additive): 513 mL
